We go through 1 compound from patent publication US20230372232A1, “ORAL CARE COMPOSITION COMPRISING SWEET POTATO-DERIVED POTATO SYRUP OR SUPERNATANT OF POTATO SYRUP” (KARAIMO NOJYO CO., LTD., priority 2020, published 2023).

Test [1] deals with Streptococcus mutans. Briefly: Tooth plaque formation inhibition by potato syrup with malt, crystal violet A570 (Test Example 6). It counts as cell-based. Conditions: 1% concentration sucrose; BHI medium, 37° C., 48 hours. As to the method: A basic sample was produced by impregnating 1% concentration sucrose (white sugar) in a BHI medium and adding 0.1 mL of Streptococcus mutans liquid (approximately 1000 bacterial bodies) thereto. Next, another additive-free sample in which the sucrose (white sugar) was not at all impregnated in the basic sample was produced. There were also individually produced a sample in which 10% of the potato syrup with malt of Example 3 was added instead of the 1% concentration sucrose (white sugar) to the basic sample and a sample in which 10% of the potato syrup of Example 1-B was added instead of the 1% concentration sucrose (white sugar) to the basic sample. The respective samples were subject to a culture process at 37° C. for 48 hours. Afterwards, the supernatant liquids of the culture fluids were discarded, and then, the respective samples were washed twice with 0.2 mL of distilled water. Afterwards, 0.2 mL each of 0.1% crystal violet were added to each of the samples, a stir staining operation was performed for 20 minutes, and then, the staining fluids were discarded. The residues were washed twice with 0.2 mL of distilled water. Then, the pigment was eluted with 0.2 mL of 99.5% ethanol and the absorbance (570 nm) was measured. Based on the results, the plaque (tooth plaque) formation inhibition rates (%) were calculated.

Test [2] relates to Streptococcus mutans. Briefly: Tooth plaque formation inhibition, crystal violet A570 (Test Examples 3 and 4). It counts as cell-based. The conditions noted are these: 1% concentration sucrose (sample 8); BHI medium, 37° C., 48 hours. As to the method: A basic sample (a sample 8) was produced by impregnating 1% concentration sucrose (white sugar) in a BHI medium of twice the normal concentration and adding 0.1 mL of Streptococcus mutans liquid (approximately 1000 bacterial bodies) thereto. Next, another sample (a sample 9) in which the sucrose (white sugar) was not at all impregnated in the basic sample (the sample 8) was produced. There were also individually produced a sample (10) in which 10% of the potato syrup of Example 1-A was added instead of the 1% concentration sucrose (white sugar) to the basic sample (the sample 8), a sample (11) in which 10% of the potato syrup of Example 1-B was added instead of the 1% concentration sucrose (white sugar) to the basic sample (the sample 8), and a sample (12) in which 10% of the potato syrup of Example 1-C was added instead of the 1% concentration sucrose (white sugar) to the basic sample (the sample 8). The respective samples were subject to a culture process at 37° C. for 48 hours. […] Then, the pigment was eluted with 0.2 mL of 99.5% ethanol, and the absorbance (570 nm) was measured. Based on the results, the plaque (tooth plaque) formation inhibition rates (%) were calculated. The results are shown in FIG. 3. plaque formation inhibition rate (%)=[A570(no sucrose added)−A570 (sample added)]/A570(no sucrose added)×100 A570: absorbance of crystal violet eluted with ethanol at 570 nm. […]

In the case of `OC[C@H]1O[C@@](CO)(O[C@H]2O[C@H](CO)[C@@H](O)[C@H](O)[C@H]2O)[C@@H](O)[C@@H]1O` [sucrose], the “plaque (tooth plaque) formation” value in the test on Streptococcus mutans [1] and with Streptococcus mutans [2] was “the plaque (tooth plaque) rapidly grew” each time.
